Data: publication PMC10165273, “Itch receptor MRGPRX4 interacts with the receptor activity–modifying proteins” (The Journal of Biological Chemistry, 2023)
Values joined by “and” are separate entries in the source; they are usually repeats but may differ in a detail not shown here. Equal values may be shown once. Read-outs that look alike come from different tables or passages of the source.

Molecular target: T1, MRGPRX4 + RAMP3 (Homo sapiens, UniProt Q96LA9)
T1 construct: expressed in transfected cells; host or cells: HEK293T
T1 sequence (Q96LA9 whole entry): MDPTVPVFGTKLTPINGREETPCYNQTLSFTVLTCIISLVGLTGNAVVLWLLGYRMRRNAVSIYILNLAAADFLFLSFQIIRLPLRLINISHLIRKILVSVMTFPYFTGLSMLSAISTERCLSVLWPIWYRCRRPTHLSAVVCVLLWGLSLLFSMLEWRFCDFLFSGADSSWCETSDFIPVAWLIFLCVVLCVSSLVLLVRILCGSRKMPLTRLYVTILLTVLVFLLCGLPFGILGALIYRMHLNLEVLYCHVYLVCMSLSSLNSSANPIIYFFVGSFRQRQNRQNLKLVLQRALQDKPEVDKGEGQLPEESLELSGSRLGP
Assay: IP1 accumulation, MRGPRX4 coexpressed with RAMP3
Type: cell-based
Parameters: key to IP1 Basal / response to agonist, X4:ramp3.I:0.25 / response to agonist, X4:ramp3.I:0.5 / response to agonist, X4:ramp3.I:1: % IP1; unstimulated mock = 0%, fully stimulated MRGPRX4 = 100%
Details: for activation at 100 µM / activation at 20 µM / activation at 4 µM / activation at 0.8 µM / activation at […] / activation at 0.032 µM: 2 h, Fig S3f, read-out: IP1 accumulation; for activation at 100 µM: log [DCA] (M) -4; for activation at 20 µM: log [DCA] (M) -4.69897; for activation at 4 µM: log [DCA] (M) -5.39794; for activation at 0.8 µM: log [DCA] (M) -6.09691; for activation at […]: log [DCA] (M) -6.79588; for activation at 0.032 µM: log [DCA] (M) -7.49485
Procedure: HEK293T cells were transfected with 1 pg/cell of MRGPRX4 DNA, and the amount of DNA was kept constant at 2 pg/cell with pcDNA3.1(+) empty vector, unless otherwise specified. Twenty four hours after transfection, IP1 assay was performed as previously described ([51]). When applicable, cells were treated with 1 μM YM254890 (YM) or different concentrations of U73122 for 1 h prior to addition of agonist or buffer. After incubation for 2 h, HTRF reagents and IP1 calibration standards were added and incubated for 2 h in the dark at room temperature. Time-resolved fluorescence signals were read on the BioTek Synergy NEO-TRF Hybrid multi-mode reader (BioTek Instruments). All data were carried out in three independent experiments with three technical replicate each.
For RAMP DNA titration assay, HEK293T cells were cotransfected with a constant amount of 1 pg/cell of FLAG-MRGPRX4-GFP10-1D4 to which a serial dilution of 1, 0.75, 0.5, 0.25, or 0 pg/cell of each HA-RAMP-OLLAS was added. For a homogenous transfection of MRGPRX4, a master mix of MRGPRX4 DNA was made prior to addition of the RAMP DNA. […]
Data reduction, standard calibration, and transformation of HTRF data were performed as previously described ([51]). Normalized IP1 values were calculated relative to the unstimulated mock-transfected cells (set to 0%) and fully stimulated MRGPRX4 (alone if applicable) (set to 100%).

[1] = MRGPRX4 + RAMP3 0.25 pg (Fig. S3), normalized per agonist
[2] = MRGPRX4 + RAMP3 0.5 pg (Fig. S3), normalized per agonist
[3] = MRGPRX4 + RAMP3 1 pg (Fig. S3), normalized per agonist
[4] = MRGPRX4 + RAMP3 2 pg (Fig. S3), normalized per agonist

C[C@H](CCC(=O)O)[C@H]1CC[C@H]2[C@@H]3CC[C@@H]4C[C@H](O)CC[C@]4(C)[C@H]3C[C@H](O)[C@]12C [DCA, deoxycholic acid]
activation at 100 µM (ratio MRGPRX4:RAMP3 1:0.25): 92.7% | activation at 20 µM (ratio MRGPRX4:RAMP3 1:0.25): 69.5% | activation at 4 µM (ratio MRGPRX4:RAMP3 1:0.25): 48.4% | activation at 0.8 µM (ratio MRGPRX4:RAMP3 1:0.25): 35.7% | activation at […] (ratio MRGPRX4:RAMP3 1:0.25): 34.1% | activation at 0.032 µM (ratio MRGPRX4:RAMP3 1:0.25): 31.5% | activation at 100 µM (ratio MRGPRX4:RAMP3 1:0.5): 90.4% | activation at 20 µM (ratio MRGPRX4:RAMP3 1:0.5): 53.8% | activation at 4 µM (ratio MRGPRX4:RAMP3 1:0.5): 33.6% | activation at 0.8 µM (ratio MRGPRX4:RAMP3 1:0.5): 22% | activation at […] (ratio MRGPRX4:RAMP3 1:0.5): 21.2% | activation at 0.032 µM (ratio MRGPRX4:RAMP3 1:0.5): 21.7% | activation at 100 µM (ratio MRGPRX4:RAMP3 1:1): 97.9% | activation at 20 µM (ratio MRGPRX4:RAMP3 1:1): 49.2% | activation at 4 µM (ratio MRGPRX4:RAMP3 1:1): 28.3% | activation at 0.8 µM (ratio MRGPRX4:RAMP3 1:1): 19.5% | activation at […] (ratio MRGPRX4:RAMP3 1:1): 19.6% | activation at 0.032 µM (ratio MRGPRX4:RAMP3 1:1): 18.9% | activation at 20 µM (ratio MRGPRX4:RAMP3 1:2): 48.1% | activation at 4 µM (ratio MRGPRX4:RAMP3 1:2): 23.1% | activation at […] (ratio MRGPRX4:RAMP3 1:2): 16.8% | activation at 0.032 µM (ratio MRGPRX4:RAMP3 1:2): 15.3% | Emax (Figure 4a bottom, DNA ratio MRGPRX4:RAMP3 1:0.75, MRGPRX4 alone = 100, read-out: efficacy): 74.9% | response to agonist, X4:ramp3.I:0.25 (Figure 4c-f, agonist 100µM, X4:ramp3 1:0.25, MRGPRX4 = 100): 83.1455 and 78.9266 | response to agonist, X4:ramp3.I:0.5 (Figure 4c-f, agonist 100µM, X4:ramp3 1:0.5, MRGPRX4 = 100): 72.4625 and 76.3406 | response to agonist, X4:ramp3.I:1 (Figure 4c-f, agonist 100µM, X4:ramp3 1:1, MRGPRX4 = 100): 72.2618 and 56.5732 | IP1 Basal [1]: 26.80 | IP1 span (top minus basal of the concentration-response fit) [1]: 84.2% | Emax (MRGPRX4 + RAMP3 0.25 pg (Fig. S3), normalized per agonist, read-out: IP1 Emax): 111% | IP1 Basal [2]: 21.60 | IP1 span (top minus basal of the concentration-response fit) [2]: 78.8% | Emax (MRGPRX4 + RAMP3 0.5 pg (Fig. S3), normalized per agonist, read-out: IP1 Emax): 100% | IP1 Basal [3]: 23.28 | IP1 span (top minus basal of the concentration-response fit) [3]: 92.1% | Emax (MRGPRX4 + RAMP3 1 pg (Fig. S3), normalized per agonist, read-out: IP1 Emax): 115% | IP1 Basal [4]: 14.52 | IP1 span (top minus basal of the concentration-response fit) [4]: 85.8% | Emax (MRGPRX4 + RAMP3 2 pg (Fig. S3), normalized per agonist, read-out: IP1 Emax): 100%
